According to patent publication EP4775582A1, “MACROCYCLIC COMPOUND AND ANTIBODY-DRUG CONJUGATE THEREOF” (Genfleet Therapeutics (Shanghai) Inc., priority 2023, dated 2025):
≈ marks a conversion by molar mass, not a printed value. Read-outs that look alike come from different tables or passages of the source.

Experiments:
H441 p-ERK = assay: Cell p-ERK assay (HTRF), NCI-H441 cells; format: cell-based, human; conditions: NCI-H441 cells (KRAS G12V), 3 h incubation
In short: (§1)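 Phospho-ERK (T202/Y204) was measured by HTRF in lysates after 3 h compound treatment at 37 °C. Cells had been plated the previous day at 20000 per well for NCI-H441 and 10000 per well for AsPC-1. Four-parameter dose-response fitting of % inhibition gave IC50 values.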

KRAS WT-cRAF = KRAS WT-cRAF (Homo sapiens, UniProt P01116+P62937); assay: Assay for binding of KRAS to cRAF (HTRF, with Cyclophilin A), KRAS WT
Method: (§3) The plate was centrifuged at 1000 rpm for 1 min and then incubated in the thermostatic incubator at 20 °C for 30 min. […] The plate was centrifuged at 1000 rpm for 1 min and then incubated in the thermostatic incubator at 20 °C for 60 min. […] The working solution was added to the aforementioned assay plate at 5 µL/well. The plate was centrifuged at 1000 rpm for 1 min and then incubated in the thermostatic incubator at 20 °C for 60 min.

[1] = Solubility experiment (HPLC, external standard); format: physicochemical; conditions: for solubility at 24 h: pH 7.4, pH 7.4 medium
In short: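 Solid compound (about 1 mg per 1 mL medium) was shaken at 37 °C for 24 h in pH 1.2, 4.5 or 7.4 media, then centrifuged and the supernatant diluted with acetonitrile/water 50/50. Concentration in μg/mL was found by HPLC against an external standard prepared from a DMSO stock.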

AsPC-1 p-ERK = assay: Cell p-ERK assay (HTRF), AsPC-1 cells; format: cell-based, human
In short: as §1

KRAS G12V-cRAF = KRAS G12V-cRAF (Homo sapiens, UniProt P01116+P62937, G12V); assay: Assay for binding of KRAS to cRAF (HTRF, with Cyclophilin A), KRAS G12V
Method: as §3

NCI-H441 cells = assay: 3D cell proliferation assay (CellTiter Glo-3D), NCI-H441; format: cell-based, human; conditions: NCI-H441 cells (KRAS G12V), 2% FBS, 5 days, read-out: H441 AP IC50
In short: (§2)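 IC50 values come from four-parameter fits of inhibition rate against log compound concentration, using CellTiter-Glo luminescence read after 5 days' exposure. AsPC-1 and NCI-H441 were plated at 800 cells per well in low-serum (2% FBS) medium. Compound was dosed the day after seeding, with incubation at 37 °C, 5% CO2.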

AsPC-1 cells = assay: 3D cell proliferation assay (CellTiter Glo-3D), AsPC-1; format: cell-based, human
In short: as §2

[2] = KRAS WT-cRAF binding assay(nM), GPPNP-KRAS WT, IC50 values
[3] = Homo sapiens, ASPC1, AsPC-1 cells (KRAS G12D), 3 h incubation, read-out: AsPC-1 p-ERK IC50
[4] = KRAS G12V-cRAF binding assay(nM), GPPNP-KRAS G12V, IC50 values
[5] = Homo sapiens, ASPC1, 120 h, AsPC-1 cells (KRAS G12D), 3D, 2% FBS, 5 days, read-out: AsPC-1 AP IC50
[6] = read-out: KRAS WT-cRAF binding assay, GPPNP-KRAS WT, IC50 values
[7] = read-out: KRAS G12V-cRAF binding assay, GPPNP-KRAS G12V, IC50 values

Sequence of KRAS WT-cRAF (P01116 1-188 isoform P01116-2): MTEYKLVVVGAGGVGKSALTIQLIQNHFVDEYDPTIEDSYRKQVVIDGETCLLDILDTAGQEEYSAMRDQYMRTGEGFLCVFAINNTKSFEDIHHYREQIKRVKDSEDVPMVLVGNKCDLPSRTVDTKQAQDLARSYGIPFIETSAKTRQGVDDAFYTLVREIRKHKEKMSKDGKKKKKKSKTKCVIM
Sequence of KRAS WT-cRAF (P62937 whole entry): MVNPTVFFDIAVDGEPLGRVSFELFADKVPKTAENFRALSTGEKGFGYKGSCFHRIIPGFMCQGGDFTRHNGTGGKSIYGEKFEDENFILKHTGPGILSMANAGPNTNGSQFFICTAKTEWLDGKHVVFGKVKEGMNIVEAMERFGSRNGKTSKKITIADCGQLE
Sequence of KRAS G12V-cRAF (P01116 1-188 isoform P01116-2 G12V): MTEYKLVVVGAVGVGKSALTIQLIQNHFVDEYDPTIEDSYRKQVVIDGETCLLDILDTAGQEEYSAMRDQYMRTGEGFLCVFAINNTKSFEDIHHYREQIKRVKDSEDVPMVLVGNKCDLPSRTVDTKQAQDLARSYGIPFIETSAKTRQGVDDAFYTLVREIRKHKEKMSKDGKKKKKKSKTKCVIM
Sequence of KRAS G12V-cRAF (P62937 whole entry): as the sequence (P62937 whole entry) above

Row | IC50 (H441 p-ERK; Homo sapiens) [nM] | IC50 (KRAS WT-cRAF; [2]) [nM] | solubility at 24 h ([1]; pH 7.4 medium, 37 °C, 24 h) [µg/mL] | IC50 (AsPC-1 p-ERK; [3]) [nM] | IC50 (KRAS G12V-cRAF; [4]) [nM] | IC50 (NCI-H441 cells; Homo sapiens, 120 h) [nM] | IC50 (AsPC-1 cells; [5]) [nM] | IC50 (KRAS WT-cRAF; [6]) [nM] | Solubility at pH 7.4 (µg/mL) ([1]; ph 7.4 medium, pH 7.4, 1440 min) | IC50 (AsPC-1 p-ERK; Homo sapiens, ASPC1, 3 h, read-out: AsPC-1 p-ERK IC50(nM)) [nM] | IC50 (KRAS G12V-cRAF; [7]) [nM] | IC50 (AsPC-1 cells; Homo sapiens, ASPC1, 120 h, read-out: AsPC-1 AP IC50(nM)) [nM] | IC50 (H441 p-ERK) [nM] | Solubility at pH 7.4 (µg/mL) ([1]; pH 7.4 medium, 37 °C, 24 h) | IC50 (AsPC-1 p-ERK; AsPC-1 cells (KRAS G12D), 3 h incubation, read-out: AsPC-1 p-ERK IC50) [nM] | IC50 (NCI-H441 cells) [nM] | IC50 (AsPC-1 cells; AsPC-1 cells (KRAS G12D), 3D, 2% FBS, 5 days, read-out: AsPC-1 AP IC50) [nM] | Structure (SMILES)
1 | 0.21 | 19.2 | 7.8 (≈ 8.6 µM) | 0.15 | 10.7 | 0.28 | 0.31 |  |  |  |  |  |  |  |  |  |  | CCn1c(-c2cc(C#CCN3CCN(C(=O)CO)CC3)cnc2C(C)OC)c2c3cc(ccc31)-c1csc(n1)CC(NC(=O)C1C(C)C1C)C(=O)N1CCCC(N1)C(=O)OCC(C)(C)C2 (atropisomer, axis not shown; (Ra)) [Compound Z6, (1r,2R,3S)-N-((6^3S,4S,Z)-1^1-ethyl-(Ra)-1^2-(5-(3-(4-(2-hydroxyacetyl)piperazin-1-yl)prop-1-yn-1-yl)-2-((S)-1-methoxyethyl)pyridin-3-yl)-10,10-dimethyl-5,7-dioxo-6^1,6^2,6^3,6^4,6^5,6^6-hexahydro-1^1H-8-oxa-2(4,2)-thiazola-1(5,3)-indola-6(1,3)-pyridazinacycloundecaphane-4-yl)-2,3-dimethylcyclopropane-1-carboxamide]
2 | 0.58 | 34.4 | 109 (≈ 118 µM) | 2.33 | 19.3 | 0.75 | 1.2 |  |  |  |  |  |  |  |  |  |  | CCn1c(-c2cc(C#CCN3CCN(C(=O)CN)CC3)cnc2C(C)OC)c2c3cc(ccc31)-c1csc(n1)CC(NC(=O)C1C3COCC31)C(=O)N1CCCC(N1)C(=O)OCC(C)(C)C2 (atropisomer, axis not shown; (Ra)) [Compound Z47, (1R,5S,6r)-N-((6^3S,4S,Z)-1^1-ethyl-(Ra)-1^2-(5-(3-(4-glycylpiperazin-1-yl)prop-1-yn-1-yl)-2-((S)-1-methoxyethyl)pyridin-3-yl)-10,10-dimethyl-5,7-dioxo-6^1,6^2,6^3,6^4,6^5,6^6-hexahydro-1^1H-8-oxa-2(4,2)-thiazola-1(5,3)-indola-6(1,3)-pyridazinacycloundecaphane-4-yl)-3-oxabicyclo[3.1.0]hexane-6-carboxamide]
3 | 1.66 | 31.3 | 71.2 (≈ 77.1 µM) | 4.7 | 9.05 | 1.99 | 5.06 |  |  |  |  |  |  |  |  |  |  | CCn1c(-c2cc(C#CCN3CCN(C(=O)CO)CC3)c[n+]([O-])c2C(C)OC)c2c3cc(ccc31)-c1csc(n1)CC(NC(=O)C1C(C)C1C)C(=O)N1CCCC(N1)C(=O)OCC(C)(C)C2 (atropisomer, axis not shown; (Ra)) [Compound Z48, (Ra)-3-((6^3S,4S,Z)-4-((1r,2R,3S)-2,3-dimethylcyclopropane-1-carboxamido)-1^1-ethyl-10,10-dimethyl-5,7-dioxo-6^1,6^2,6^3,6^4,6^5,6^6-hexahydro-1^1H-8-oxa-2(4,2)-thiazola-1(5,3)-indola-6(1,3)-pyridazinacycloundecaphane-1^2-yl)-5-(3-(4-(2-hydroxyacetyl)piperazin-1-yl)prop-1-yn-1-yl)-2-((S)-1-methoxyethyl)pyridine 1-oxide]
4 | 1.8 | 18.9 | 15.6 (≈ 16.4 µM) | 1.32 | 9.9 | 0.65 | 0.33 |  |  |  |  |  |  |  |  |  |  | COCCn1c(-c2cc(C#CCN3CCC(C#N)(CO)CC3)c[n+]([O-])c2C(C)OC)c2c3cc(ccc31)-c1csc(n1)CC(NC(=O)C1C(C)C1C)C(=O)N1CCCC(N1)C(=O)OCC(C)(C)C2 (atropisomer, axis not shown; (Ra)) [Compound Z42-1, 5-(3-(4-cyano-4-(hydroxymethyl)piperidin-1-yl)prop-1-yn-1-yl)-(Ra)-3-((6^3S,4S,Z)-4-((1r,2R,3S)-2,3-dimethylcyclopropane-1-carboxamido)-1^1-(2-methoxyethyl)-10,10-dimethyl-5,7-dioxo-6^1,6^2,6^3,6^4,6^5,6^6-hexahydro-1^1H-8-oxa-2(4,2)-thiazola-1(5,3)-indola-6(1,3)-pyridazinacycloundecaphane-1^2-yl)-2-((S)-1-methoxyethyl)pyridine 1-oxide]
5 | 0.32 |  |  |  |  | 0.11 |  | 19.5 | 66.54 | 0.3 | 8.54 | 0.12 |  |  |  |  |  | CCn1c(-c2cc(C#CCN3CCS(=O)(=O)CC3)cnc2[C@H](C)NC)c2c3cc(ccc31)-c1csc(n1)C[C@H](NC(=O)[C@H]1[C@H](C)[C@@H]1C)C(=O)N1CCC[C@H](N1)C(=O)OCC(C)(C)C2 (atropisomer, axis not shown; (Ra)) [Compound Z66, (1r,2R,3S)-N-((6^3S,4S,Z)-(Ra)-1^2-(5-(3-(1,1-dioxidothiomorpholino)prop-1-yn-1-yl)-2-((S)-1-(methylamino)ethyl)pyridin-3-yl)-1^1-ethyl-10,10-dimethyl-5,7-dioxo-6^1,6^2,6^3,6^4,6^5,6^6-hexahydro-1^1H-8-oxa-2(4,2)-thiazola-1(5,3)-indola-6(1,3)-pyridazinacycloundecaphane-4-yl)-2,3-dimethylcyclopropane-1-carboxamide]
6 | 0.42 | 25.2 | 55.8 (≈ 61.6 µM) | 1.73 | 11.8 | 0.38 | 1.21 |  |  |  |  |  |  |  |  |  |  | CCn1c(-c2cc(C#CCN3CCN(C(=O)CO)CC3)cnc2C(C)OC)c2c3cc(ccc31)-c1coc(n1)CC(NC(=O)C1C3COCC31)C(=O)N1CCCC(N1)C(=O)OCC(C)(C)C2 (atropisomer, axis not shown; (Ra)) [Compound Z44, (1R,5S,6r)-N-((6^3S,4S,Z)-(Ra)-1^2-(5-(3-(4-(2-hydroxyacetyl)piperazin-1-yl)prop-1-yn-1-yl)-2-((S)-1-methoxyethyl)pyridin-3-yl)-1^1-ethyl-10,10-dimethyl-5,7-dioxo-6^1,6^2,6^3,6^4,6^5,6^6-hexahydro-1^1H-8-oxa-2(4,2)-oxazola-1(5,3)-indola-6(1,3)-pyridazinacycloundecaphane-4-yl)-3-oxabicyclo[3.1.0]hexane-6-carboxamide]
7 |  |  |  |  |  |  |  | 25.3 |  |  | 17.1 |  | 0.27 | 16.22 | 0.28 | 0.47 | 0.77 | CCn1c(-c2cc(C#CCN3CCN(C(=O)CO)CC3)cnc2[C@H](C)OC)c2c3cc(ccc31)-c1csc(n1)C[C@H](NC(=O)[C@H]1[C@@H]3COC[C@@H]31)C(=O)N1CCC[C@H](N1)C(=O)OCC(C)(C)C2 (atropisomer, axis not shown; (Ra)) [Compound Z34, (1R,5S,6r)-N-((6^3S,4S,Z)-1^1-ethyl-1^2-(5-(3-(4-(2-hydroxyacetyl)piperazin-1-yl)prop-1-yn-1-yl)-(Ra)-2-((S)-1-methoxyethyl)pyridin-3-yl)-10,10-dimethyl-5,7-dioxo-6^1,6^2,6^3,6^4,6^5,6^6-hexahydro-1^1H-8-oxa-2(4,2)-thiazola-1(5,3)-indola-6(1,3)-pyridazinacycloundecaphane-4-yl)-3-oxabicyclo[3.1.0]hexane-6-carboxamide]
8 | 0.45 | 14.3 | 5.1 (≈ 5.41 µM) | 0.38 | 7.8 | 0.4 | 0.43 |  |  |  |  |  |  |  |  |  |  | CCn1c(-c2cc(C#CC(CO)N3CCS(=O)(=O)CC3)cnc2C(C)OC)c2c3cc(ccc31)-c1csc(n1)CC(NC(=O)C1C3COCC31)C(=O)N1CCCC(N1)C(=O)OCC(C)(C)C2 (atropisomer, axis not shown; (Ra)) [Compound Z40, (1R,5S,6r)-N-((6^3S,4S,Z)-(Ra)-1^2-(5-(3-(1,1-dioxidothiomorpholino)-4-hydroxybut-1-yn-1-yl)-(Ra)-2-((S)-1-methoxyethyl)-pyridin-3-yl)-1^1-ethyl-10,10-dimethyl-5,7-dioxo-6^1,6^2,6^3,6^4,6^5,6^6-hexahydro-1^1H-8-oxa-2(4,2)-thiazola-1(5,3)-indola-6(1,3)-pyridazinacycloundecaphane-4-yl)-3-oxabicyclo[3.1.0]hexane-6-carboxamide]
